In experiment [1] the test system is T1, rFaCXE2 (FaCXE2).
T1 construct: fusion protein about 35-40 kDa; cloned from strawberry green fruit cDNA
Description: GC-MS of alcohol product, double-reciprocal plot. It is filed as biochemical, Fragaria x ananassa. Conditions: Tris-HCl 100 mM, pH 7.5, 30 °C. The text has this:
GC-MS of alcohol product, double-reciprocal plot on rFaCXE2 (FaCXE2)

Experiment [2] deals with T2, rFaCXE3 (FaCXE3).
T2 construct: fusion protein about 35-40 kDa; cloned from strawberry green fruit cDNA
Put plainly: GC-MS of alcohol product, double-reciprocal plot. Conditions: Tris-HCl 100 mM, pH 7.5, 30 °C. In kind it is biochemical, Fragaria x ananassa. The text has this:
GC-MS of alcohol product, double-reciprocal plot on rFaCXE3 (FaCXE3)

One may read the Km as the substrate concentration at which the rate is half of its maximum. As for `CC/C=C\CCOC(C)=O` [Z-3-Hexenyl acetate], the Km in experiment [1] worked out at 2500 ± 130 µM; in experiment [2] it was 950 ± 50 µM.

As for `CCC/C=C/COC(C)=O` [E-2-Hexenyl acetate], the Km in experiment [1] amounted to 1040 ± 50 µM; in experiment [2], 980 ± 110 µM.

As for `CCCCCCOC(C)=O` [Hexyl acetate], the Km in experiment [1] came to 10900 ± 840 µM; in experiment [2] it was 840 ± 70 µM.

(Values after article PMC9820763, “The Functional Characterization of Carboxylesterases Involved in the Degradation of Volatile Esters Produced in Strawberry Fruits” (International Journal of Molecular Sciences, 2022).)
